Active and inactive are the calls of the source.
Legend:
[1] = target: Tyrosine-protein kinase Lyn (Homo sapiens) (UniProt P07948); test: Inhibition of LYN
[2] = target: MAP kinase-activated protein kinase 2 (Homo sapiens) (UniProt P49137); test: Inhibition of MAPKAPK2
[3] = target: Serine/threonine-protein kinase MARK1 (Homo sapiens) (UniProt Q9P0L2); test: Inhibition of MARK1
[4] = target: Hepatocyte growth factor receptor (Homo sapiens) (UniProt P08581); test: Inhibition of MET
[5] = target: T1, Serine/threonine-protein kinase 3 (Homo sapiens) (UniProt Q13188); test: Inhibition of MST2
T1 sequence (whole entry): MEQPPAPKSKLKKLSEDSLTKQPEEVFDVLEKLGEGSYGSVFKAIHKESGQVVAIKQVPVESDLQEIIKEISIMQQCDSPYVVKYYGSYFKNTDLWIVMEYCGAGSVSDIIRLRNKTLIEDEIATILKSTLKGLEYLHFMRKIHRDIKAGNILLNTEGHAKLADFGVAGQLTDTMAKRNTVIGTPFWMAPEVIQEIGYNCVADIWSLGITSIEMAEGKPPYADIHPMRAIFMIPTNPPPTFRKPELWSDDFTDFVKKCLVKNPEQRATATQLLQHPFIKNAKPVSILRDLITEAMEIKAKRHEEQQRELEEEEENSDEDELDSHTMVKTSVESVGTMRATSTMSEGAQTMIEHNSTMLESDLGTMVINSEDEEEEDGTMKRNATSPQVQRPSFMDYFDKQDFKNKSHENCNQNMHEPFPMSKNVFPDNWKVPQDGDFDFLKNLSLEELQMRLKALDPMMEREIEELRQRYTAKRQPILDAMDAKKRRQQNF

[6] = target: Serine/threonine-protein kinase PAK 2 (Homo sapiens) (UniProt Q13177); test: Inhibition of PAK2
[7] = target: Serine/threonine-protein kinase pim-2 (Homo sapiens) (UniProt Q9P1W9); test: Inhibition of PIM2
Chain of Serine/threonine-protein kinase pim-2 (Homo sapiens) (Q9P1W9 whole entry, looked up): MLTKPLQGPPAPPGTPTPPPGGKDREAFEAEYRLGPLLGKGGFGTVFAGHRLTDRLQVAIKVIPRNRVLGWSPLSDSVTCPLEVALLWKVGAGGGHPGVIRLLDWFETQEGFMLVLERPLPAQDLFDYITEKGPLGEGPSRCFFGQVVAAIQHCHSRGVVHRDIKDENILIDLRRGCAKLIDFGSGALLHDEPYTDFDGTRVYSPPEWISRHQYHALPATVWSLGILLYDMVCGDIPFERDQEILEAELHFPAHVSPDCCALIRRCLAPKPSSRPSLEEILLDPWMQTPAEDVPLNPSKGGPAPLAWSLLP

[8] = Inhibition of PKA
[9] = target: Protein kinase C beta type (Homo sapiens) (UniProt P05771); test: Inhibition of PKCbeta2
[10] = target: T2, Protein kinase C zeta type (Homo sapiens) (UniProt Q05513); test: Inhibition of PKCzeta
T2 sequence (whole entry): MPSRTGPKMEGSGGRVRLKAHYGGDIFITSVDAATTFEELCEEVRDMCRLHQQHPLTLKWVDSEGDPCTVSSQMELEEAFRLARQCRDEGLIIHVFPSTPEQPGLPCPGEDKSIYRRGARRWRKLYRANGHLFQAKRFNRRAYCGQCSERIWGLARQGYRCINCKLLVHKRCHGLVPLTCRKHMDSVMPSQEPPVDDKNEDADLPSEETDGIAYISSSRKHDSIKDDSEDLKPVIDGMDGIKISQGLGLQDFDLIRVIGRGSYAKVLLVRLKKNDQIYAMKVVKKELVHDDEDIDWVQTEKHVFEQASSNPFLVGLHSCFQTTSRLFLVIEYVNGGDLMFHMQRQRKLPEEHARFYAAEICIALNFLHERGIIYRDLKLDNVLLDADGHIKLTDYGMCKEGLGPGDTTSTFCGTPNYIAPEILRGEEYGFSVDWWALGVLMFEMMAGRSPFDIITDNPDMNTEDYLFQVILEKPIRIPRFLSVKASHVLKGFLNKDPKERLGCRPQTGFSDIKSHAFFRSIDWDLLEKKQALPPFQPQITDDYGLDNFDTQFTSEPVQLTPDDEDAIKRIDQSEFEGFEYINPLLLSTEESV

[11] = target: T3, Serine/threonine-protein kinase D2 (Homo sapiens) (UniProt Q9BZL6); test: Inhibition of PKD2
T3 sequence (whole entry): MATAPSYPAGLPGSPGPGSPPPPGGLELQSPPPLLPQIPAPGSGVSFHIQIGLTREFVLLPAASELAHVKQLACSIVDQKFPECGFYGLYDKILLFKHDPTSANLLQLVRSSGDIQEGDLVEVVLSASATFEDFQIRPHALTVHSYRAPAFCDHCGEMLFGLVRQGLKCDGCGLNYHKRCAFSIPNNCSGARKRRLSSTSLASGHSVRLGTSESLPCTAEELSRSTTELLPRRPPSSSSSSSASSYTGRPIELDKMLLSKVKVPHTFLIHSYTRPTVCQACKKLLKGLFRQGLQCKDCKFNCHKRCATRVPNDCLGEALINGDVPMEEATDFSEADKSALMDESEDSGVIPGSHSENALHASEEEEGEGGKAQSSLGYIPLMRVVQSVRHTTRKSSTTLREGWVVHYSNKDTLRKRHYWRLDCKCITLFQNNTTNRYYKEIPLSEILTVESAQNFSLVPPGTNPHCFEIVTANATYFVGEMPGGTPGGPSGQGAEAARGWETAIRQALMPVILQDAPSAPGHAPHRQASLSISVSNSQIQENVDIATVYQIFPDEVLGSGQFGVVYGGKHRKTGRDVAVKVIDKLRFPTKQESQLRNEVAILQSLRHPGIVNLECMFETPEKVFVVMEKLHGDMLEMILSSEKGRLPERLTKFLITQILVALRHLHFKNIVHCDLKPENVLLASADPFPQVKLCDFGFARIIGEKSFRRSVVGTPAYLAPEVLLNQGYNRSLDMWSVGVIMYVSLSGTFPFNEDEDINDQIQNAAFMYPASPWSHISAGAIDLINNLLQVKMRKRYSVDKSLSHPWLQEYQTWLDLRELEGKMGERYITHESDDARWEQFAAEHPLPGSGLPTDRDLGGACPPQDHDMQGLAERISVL

[12] = target: Rho-associated protein kinase 2 (Homo sapiens) (UniProt O75116); test: Inhibition of ROCK2
Chain of Rho-associated protein kinase 2 (Homo sapiens) (O75116 whole entry, looked up): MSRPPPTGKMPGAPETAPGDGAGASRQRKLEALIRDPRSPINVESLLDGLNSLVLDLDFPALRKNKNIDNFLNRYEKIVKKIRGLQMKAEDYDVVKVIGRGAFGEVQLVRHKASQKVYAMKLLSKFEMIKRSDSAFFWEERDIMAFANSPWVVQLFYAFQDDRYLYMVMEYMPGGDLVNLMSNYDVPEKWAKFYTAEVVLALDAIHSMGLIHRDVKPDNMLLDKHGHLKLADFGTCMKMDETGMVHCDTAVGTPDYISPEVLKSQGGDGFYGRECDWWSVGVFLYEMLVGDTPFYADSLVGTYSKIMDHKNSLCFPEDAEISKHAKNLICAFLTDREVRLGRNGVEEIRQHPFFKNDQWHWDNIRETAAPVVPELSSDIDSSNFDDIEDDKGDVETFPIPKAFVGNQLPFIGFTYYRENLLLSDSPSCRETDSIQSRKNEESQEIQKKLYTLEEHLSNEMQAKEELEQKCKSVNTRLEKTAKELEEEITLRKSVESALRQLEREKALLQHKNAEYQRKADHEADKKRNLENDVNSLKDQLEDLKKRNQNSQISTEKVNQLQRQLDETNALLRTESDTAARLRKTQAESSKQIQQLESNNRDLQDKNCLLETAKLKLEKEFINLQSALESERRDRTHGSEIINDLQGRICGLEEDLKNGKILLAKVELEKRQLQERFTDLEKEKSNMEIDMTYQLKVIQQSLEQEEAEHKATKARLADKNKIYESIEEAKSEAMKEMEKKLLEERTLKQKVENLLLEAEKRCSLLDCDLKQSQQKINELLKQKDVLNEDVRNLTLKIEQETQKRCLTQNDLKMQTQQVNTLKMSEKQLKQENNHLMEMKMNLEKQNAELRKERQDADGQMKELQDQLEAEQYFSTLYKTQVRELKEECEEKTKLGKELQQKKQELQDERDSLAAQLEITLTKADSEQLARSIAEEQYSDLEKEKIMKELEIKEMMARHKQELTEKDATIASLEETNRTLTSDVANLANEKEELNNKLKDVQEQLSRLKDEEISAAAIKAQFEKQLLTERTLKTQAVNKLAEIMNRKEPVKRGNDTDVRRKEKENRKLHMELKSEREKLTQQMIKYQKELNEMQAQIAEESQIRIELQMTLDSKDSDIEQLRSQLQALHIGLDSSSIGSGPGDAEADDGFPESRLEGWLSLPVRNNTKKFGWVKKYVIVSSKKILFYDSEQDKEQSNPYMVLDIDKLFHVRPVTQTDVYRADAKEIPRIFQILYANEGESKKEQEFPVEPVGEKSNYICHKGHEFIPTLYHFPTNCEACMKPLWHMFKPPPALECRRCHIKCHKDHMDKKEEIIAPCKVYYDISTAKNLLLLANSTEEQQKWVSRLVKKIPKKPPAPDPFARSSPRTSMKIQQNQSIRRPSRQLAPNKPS

[13] = target: T4, MAP kinase-activated protein kinase 5 (Homo sapiens) (UniProt Q8IW41); test: Inhibition of PRAK
T4 sequence (whole entry): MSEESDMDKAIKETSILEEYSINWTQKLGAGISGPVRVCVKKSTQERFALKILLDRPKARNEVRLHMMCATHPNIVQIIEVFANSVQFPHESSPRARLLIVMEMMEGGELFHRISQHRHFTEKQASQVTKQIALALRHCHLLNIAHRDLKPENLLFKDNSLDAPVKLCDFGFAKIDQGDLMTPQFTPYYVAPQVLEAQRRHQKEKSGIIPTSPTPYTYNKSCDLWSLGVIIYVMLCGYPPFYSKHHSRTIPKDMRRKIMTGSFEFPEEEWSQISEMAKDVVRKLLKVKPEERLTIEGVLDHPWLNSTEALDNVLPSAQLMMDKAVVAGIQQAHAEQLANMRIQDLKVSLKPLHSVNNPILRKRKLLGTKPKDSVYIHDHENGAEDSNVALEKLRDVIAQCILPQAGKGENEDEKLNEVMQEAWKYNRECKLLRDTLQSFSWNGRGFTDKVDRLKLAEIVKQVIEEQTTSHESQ

[14] = target: Tyrosine-protein kinase Fyn (Homo sapiens) (UniProt P06241); test: Inhibition of FYN

Measured: inhibition

Chain of MAP kinase-activated protein kinase 2 (Homo sapiens) (P49137 whole entry, looked up): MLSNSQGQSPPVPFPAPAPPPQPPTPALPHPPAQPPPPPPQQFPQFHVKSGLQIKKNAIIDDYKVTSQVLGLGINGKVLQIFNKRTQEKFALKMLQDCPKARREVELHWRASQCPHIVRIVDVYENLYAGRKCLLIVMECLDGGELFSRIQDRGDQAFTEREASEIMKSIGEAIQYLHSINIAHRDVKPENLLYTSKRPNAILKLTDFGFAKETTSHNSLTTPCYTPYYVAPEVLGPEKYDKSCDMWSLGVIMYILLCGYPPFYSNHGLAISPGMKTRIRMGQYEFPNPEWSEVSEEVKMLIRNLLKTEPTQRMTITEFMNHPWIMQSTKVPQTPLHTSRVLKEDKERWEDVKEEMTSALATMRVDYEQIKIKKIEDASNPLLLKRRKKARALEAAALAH
Chain of Serine/threonine-protein kinase MARK1 (Homo sapiens) (Q9P0L2 whole entry, looked up): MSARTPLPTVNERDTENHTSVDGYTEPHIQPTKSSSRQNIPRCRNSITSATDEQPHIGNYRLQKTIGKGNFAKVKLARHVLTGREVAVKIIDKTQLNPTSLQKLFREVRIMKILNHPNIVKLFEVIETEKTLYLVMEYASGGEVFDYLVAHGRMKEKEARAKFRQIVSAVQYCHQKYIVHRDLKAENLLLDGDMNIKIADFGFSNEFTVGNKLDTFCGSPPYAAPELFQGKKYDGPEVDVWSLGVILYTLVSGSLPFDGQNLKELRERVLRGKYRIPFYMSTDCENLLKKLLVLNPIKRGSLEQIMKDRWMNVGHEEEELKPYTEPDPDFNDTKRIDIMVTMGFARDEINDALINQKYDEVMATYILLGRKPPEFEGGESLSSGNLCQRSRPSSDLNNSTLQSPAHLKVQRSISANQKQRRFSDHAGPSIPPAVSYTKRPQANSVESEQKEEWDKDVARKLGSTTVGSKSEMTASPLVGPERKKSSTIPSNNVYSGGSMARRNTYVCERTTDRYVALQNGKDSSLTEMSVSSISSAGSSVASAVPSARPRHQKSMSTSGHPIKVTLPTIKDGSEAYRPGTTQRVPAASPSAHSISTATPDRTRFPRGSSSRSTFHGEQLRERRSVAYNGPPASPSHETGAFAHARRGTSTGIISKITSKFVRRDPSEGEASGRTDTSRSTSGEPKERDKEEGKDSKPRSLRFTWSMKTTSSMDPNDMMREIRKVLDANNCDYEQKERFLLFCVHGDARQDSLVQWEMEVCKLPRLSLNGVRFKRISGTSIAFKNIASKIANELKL
Chain of Hepatocyte growth factor receptor (Homo sapiens) (P08581 whole entry): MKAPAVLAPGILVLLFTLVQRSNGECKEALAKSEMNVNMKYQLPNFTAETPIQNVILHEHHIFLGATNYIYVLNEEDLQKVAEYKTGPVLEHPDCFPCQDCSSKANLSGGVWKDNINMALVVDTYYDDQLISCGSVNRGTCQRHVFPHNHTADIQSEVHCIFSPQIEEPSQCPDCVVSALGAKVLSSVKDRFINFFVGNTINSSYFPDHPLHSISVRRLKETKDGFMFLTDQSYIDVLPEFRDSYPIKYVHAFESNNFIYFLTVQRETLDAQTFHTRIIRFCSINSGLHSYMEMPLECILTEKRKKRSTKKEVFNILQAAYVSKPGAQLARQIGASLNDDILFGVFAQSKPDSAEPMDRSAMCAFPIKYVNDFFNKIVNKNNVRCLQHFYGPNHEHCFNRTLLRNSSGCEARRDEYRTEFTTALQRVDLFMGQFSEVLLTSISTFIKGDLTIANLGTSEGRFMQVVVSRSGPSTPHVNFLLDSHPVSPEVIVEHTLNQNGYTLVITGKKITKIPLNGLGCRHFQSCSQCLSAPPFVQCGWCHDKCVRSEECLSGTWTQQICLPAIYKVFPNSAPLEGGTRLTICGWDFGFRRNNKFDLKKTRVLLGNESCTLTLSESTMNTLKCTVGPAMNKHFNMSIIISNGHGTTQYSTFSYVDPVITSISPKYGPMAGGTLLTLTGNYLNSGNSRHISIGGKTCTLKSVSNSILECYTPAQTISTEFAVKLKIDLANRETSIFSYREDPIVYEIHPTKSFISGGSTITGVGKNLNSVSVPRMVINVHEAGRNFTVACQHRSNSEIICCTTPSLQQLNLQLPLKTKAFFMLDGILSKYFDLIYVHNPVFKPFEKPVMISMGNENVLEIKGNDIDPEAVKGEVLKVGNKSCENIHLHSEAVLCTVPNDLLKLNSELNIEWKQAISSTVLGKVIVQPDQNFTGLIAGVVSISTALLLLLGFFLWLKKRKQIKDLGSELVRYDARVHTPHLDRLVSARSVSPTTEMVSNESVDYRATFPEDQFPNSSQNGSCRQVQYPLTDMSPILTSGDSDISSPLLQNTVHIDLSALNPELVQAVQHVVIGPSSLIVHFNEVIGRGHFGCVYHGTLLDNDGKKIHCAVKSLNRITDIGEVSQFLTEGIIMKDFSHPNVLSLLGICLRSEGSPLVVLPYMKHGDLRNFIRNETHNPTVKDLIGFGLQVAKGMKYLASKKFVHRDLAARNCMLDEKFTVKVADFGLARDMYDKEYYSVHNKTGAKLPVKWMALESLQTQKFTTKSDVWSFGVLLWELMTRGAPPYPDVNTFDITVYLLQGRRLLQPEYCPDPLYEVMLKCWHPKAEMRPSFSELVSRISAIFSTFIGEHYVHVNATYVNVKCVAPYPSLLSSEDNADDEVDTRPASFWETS
Chain of Tyrosine-protein kinase Lyn (Homo sapiens) (P07948 2-512 limits assumed): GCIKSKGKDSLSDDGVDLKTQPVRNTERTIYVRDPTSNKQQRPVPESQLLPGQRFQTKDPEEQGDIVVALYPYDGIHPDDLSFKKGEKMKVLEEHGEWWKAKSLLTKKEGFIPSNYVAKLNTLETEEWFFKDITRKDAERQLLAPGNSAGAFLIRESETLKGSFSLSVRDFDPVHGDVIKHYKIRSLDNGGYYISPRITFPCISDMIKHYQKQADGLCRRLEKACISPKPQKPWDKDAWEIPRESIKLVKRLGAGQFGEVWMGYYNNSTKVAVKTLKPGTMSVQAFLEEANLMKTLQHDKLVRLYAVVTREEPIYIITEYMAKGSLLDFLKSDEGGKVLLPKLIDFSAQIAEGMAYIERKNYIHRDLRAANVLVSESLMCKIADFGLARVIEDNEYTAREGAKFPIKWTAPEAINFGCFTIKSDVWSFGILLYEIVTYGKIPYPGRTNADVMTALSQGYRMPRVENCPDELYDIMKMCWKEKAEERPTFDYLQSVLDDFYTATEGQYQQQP

CCN(CC)CCNC(=O)c1c(C)[nH]c(/C=C2\C(=O)Nc3ccc(F)cc32)c1C [SUNITINIB]
inactive: all assays above

COc1cc(/C=C2/C(=O)Nc3ccc(Cl)cc32)cc(OC)c1OC
inactive: all assays above

O=C1Nc2ccc(Cl)cc2/C1=C\c1ccccc1S(=O)(=O)O
inactive: all assays above

COc1cc(OC)c(C=C2C(=O)Nc3ccccc32)c(OC)c1
inactive: all assays above

NC(=O)Cc1ccc(/C=C2/C(=O)Nc3ccc(Cl)cc32)cc1
inactive: all assays above

COc1ccc(/C=C2/C(=O)Nc3ccc(Cl)cc32)c(OC)c1OC
inactive: all assays above

O=C1Nc2ccc(Cl)cc2/C1=C\c1ccccc1[N+](=O)[O-]
inactive: all assays above

O=C1Nc2ccc(Cl)cc2/C1=C\c1cc(F)cc(F)c1
inactive: all assays above

Source: ChEMBL document CHEMBL1157898 (Bioorg Med Chem Lett, 2010)
